Source: a melting point compilation (Tetko et al.; mined from patent text by program, amines drawn as free bases though some values may be those of a salt)

Row | melting point | Compound
1 | 92 to 93 °C | CN(CCCNC(=O)CSc1nc2ccc(N(C)C)nc2s1)Cc1ccc(Cl)c(Cl)c1
2 | 202 to 204 °C | CCOC(=O)c1cccc2c1Cc1c-2[nH]c2ccc(Cl)cc12
3 | 56.5 to 58.5 °C | CCOC(=O)c1c(O)cc(C(F)(F)Cl)nc1C(F)(F)F
4 | 129 to 131 °C | COc1ccc(C(=O)N2CC[C@@H](O)C2=O)cc1O
5 | 130 to 140 °C | O=C(O)Cc1ccc(N(C(=O)C(COC2CCCCO2)NS(=O)(=O)c2ccc3ccccc3c2)c2ccc(CC(=O)O)cc2)cc1 (racemic)
6 | 210 to 212 °C | NS(=O)(=O)c1ccc(NN=C2C(=O)Nc3ccc(C(=O)NCCN4CCOCC4)cc32)cc1
7 | 67 °C | CC(C)(C)C(=O)C(CSc1ccc(Cl)cc1)n1cncn1 (stereo not given)
8 | 270 to 273 °C | CCCn1c(=O)c2[nH]c(-c3cc(C)n(CC(=O)Nc4ccc(Br)cc4)n3)nc2n(CCC)c1=O
9 | > 400 °C | COc1ccccc1-n1c(=O)[nH]c2c(C(N)=O)nc(N[C@@H]3CCNC3)nc21
10 | 227 to 228 °C | CC1(C(=O)O)CCC(=O)c2cc(C3CCCCC3)c(Cl)cc21 (stereo not given)
11 | 138 to 139 °C | COc1ccc(CCn2ccc3ccc(-c4cccc(C(=O)NCCC#N)c4)nc32)cc1OC
12 | 182 to 184 °C | Cn1c(COc2ccc(CC3SC(=O)NC3=O)cc2)nc2ccc(Oc3ccc(NC(=O)C4CCCCC4)cc3)cc21 (stereo not given)
13 | 230 to 232 °C | CCc1cc(Oc2ccc(S(C)(=O)=O)nc2)cc2cc(C3=NCC(CC(=O)O)S3)[nH]c12 (stereo not given)
14 | 168 to 172 °C | CCOC1=NS(=O)C(C(N)=O)=C1Br (stereo not given)
15 | 97 to 99 °C | Cc1ccc(C(=O)c2noc(CS(=O)c3ccccc3)n2)cc1 (stereo not given)
16 | 88 to 90 °C | CN1CCc2ccccc21
17 | 149 to 151 °C | CC(=O)SCC(CSC(C)=O)C(=O)N1c2ccccc2CCC1C(=O)O (stereo not given)
18 | 99 to 102 °C | Cc1ccc(C(O)=C(C#N)C(=O)C(C)(C)C)c([N+](=O)[O-])c1
19 | 97 to 98 °C | CC1(C)c2cc(OS(C)(=O)=O)ccc2OC1N1CCCCC1 (stereo not given)
20 | 175 to 176 °C | CC(=O)N1C(C)(C)CC(Oc2nc(OC3CC(C)(C)N(O)C(C)(C)C3)nc(N3C(C)(C)CCCC3(C)C)n2)CC1(C)C
21 | 128 to 130 °C | CCCC(=O)c1cnc2c(OC)cccc2c1Nc1ccccc1COC
22 | 206 to 208 °C | CC1(C)NC(C(=O)O)C(C)(C)S1 (stereo not given)
23 | 241 to 243 °C | CCOCc1nc2c(N)nc3ccccc3c2n1CC(C)(C)C(N)=O
24 | 165 °C | COc1ccc(OC)c(C(=O)/C=C/C(=C/C(=O)O)c2ccccc2)c1
25 | 165 to 168 °C | CCn1nc(C(=O)OC)cc1C

Row | melting point | Compound
26 | 113 to 114 °C | O=C(CCCCCBr)Nc1cc(Cl)c(O)c(Cl)c1
27 | 148 °C | CS/C=C(/C)n1c(=O)n(Cc2cc(C(F)(F)F)cc(C(F)(F)F)c2)c2ccccc21
28 | 201 to 202 °C | Cc1cc(Cn2nnc(C(N)=O)c2N)cc(Cl)c1C(=O)c1ccc(C(F)(F)F)cc1
29 | 95 °C | CCCCC(C(=O)OC)c1cccc(C(=O)c2cc3cc(C(=O)OC)sc3s2)c1 (stereo not given)
30 | 180 to 182 °C | Cc1c(C(=O)O)cnn1-c1c(Cl)cccc1Cl
31 | 198 °C | CC(=O)Nc1c(C)cc2c(nc3n2CCC3)c1[N+](=O)[O-]
32 | 194 to 196 °C | O=C1N(Cc2ccccc2)Cc2cnc(Nc3ccc(N4CCCCC4)cn3)nc2N1C1CCCC1
33 | 137 to 138 °C | O=c1cc(-c2ccccc2F)oc(N2CCOCC2)c1
34 | 194 to 198 °C | COC(=O)CNc1cc(-c2c3ccccc3c(Br)c3sc(C)c(C)c23)cc(Br)c1OC
35 | 144 to 145 °C | Cn1c(C(F)(F)F)ccc(-c2cc(S(C)(=O)=O)c(Cl)cc2F)c1=O
36 | 167 to 171 °C | CC(C)C(NC(=O)c1ccccn1)C(=O)NC(Cc1ccccc1)C(O)C(O)C(Cc1ccccc1)NC(=O)C(NC(=O)c1ccccn1)C(C)C (stereo not given)
37 | 164 to 166 °C | CCOC(=O)c1ccc2c(c1)nc(-c1c(Cl)cccc1Cl)n2C
38 | 145 to 146 °C | COC(=O)C1=C(C)NC(C(C)(OC)OC)=C(C(=O)OC)C1c1ccccc1Cl (stereo not given)
39 | 99 to 101 °C | N#CC(C#N)=C1N(CCCN2CCCCC2)CCN1CCCN1CCCCC1
40 | 147 to 148 °C | CC1(C)CSc2c(-c3ccccc3)c(-c3ccc(Cl)cc3)cn2C1
41 | 110 to 113 °C | CCCCCc1cc2cc(O)ccc2c(Oc2ccc(/C=C/C(=O)O)cc2)c1-c1ccccc1
42 | 210 to 213 °C | CCCc1ccccc1OCCCOc1ccc2c(=O)cc(C(N)=O)oc2c1
43 | 50.9 to 51.6 °C | OCCCC#CC#Cc1ccccc1
44 | 106 to 108 °C | CC(C)(C)NS(=O)(=O)c1ccccc1CCOS(C)(=O)=O
45 | 212 to 215 °C | CC(C)(C)OC(=O)N1CCn2c(c(C(=O)O)c(C#N)c2-c2ccccc2)C1
46 | 163 °C | CCN(c1cccc2cc(C(N)=S)[nH]c12)S(=O)(=O)c1cccs1
47 | 150 °C | CN(C)c1ccc(C#N)nn1
48 | 103 to 104 °C | Fc1ccc(-c2ncn(CCCCN3CCOCC3)c2-c2ccncc2)cc1
49 | 172 to 174 °C | COc1ccc2c(c1O)CCN(C=O)C2
50 | 202 to 205 °C | ON=c1cc(-c2cc3cccn3cn2)oc2ccc(OCCCOc3cccnc3)cc12

Row | melting point | Compound
51 | 153 to 155 °C | CCCCc1nc2c(N)nc3ccccc3c2n1CCCCCCCCNC(=O)Nc1ccccc1
52 | 158 to 160 °C | FC(F)(F)c1cccc(-c2ccnc3ncnn23)c1
53 | 100 to 108 °C | O=C1N=C(N2CCOCC2)SC1Cc1cccc(-c2ccc(O)c(C3CCCCC3)c2)c1 (stereo not given)
54 | 52 to 53 °C | CCC(CC)COC(=O)c1ccc(N)cc1
55 | 132 to 134 °C | O=[N+]([O-])c1ccc(N2CCC2)nc1
56 | 141 to 142 °C | CC(=O)Nc1ccc(OC(C)(C)C(=O)c2ccccc2)cc1
57 | 134 to 140 °C | COC(=O)c1cc(OC)c(OCc2ccccc2)cc1N=CN(C)C
58 | 116 to 118 °C | CC(C)(C)OC(=O)NC(C(=O)O)C1(O)CCSC1 (stereo not given)
59 | 76 to 78 °C | CS(=O)c1ccc(Oc2ccc([N+](=O)[O-])cc2)cc1 (stereo not given)
60 | 154 to 155 °C | COCC(COC)Nc1cc(C)nn2c(-c3ccc(Cl)cc3Cl)c(C)cc12
61 | 54 to 55 °C | COC(=O)CCC/C=C(/c1cc(C)c2onc(OC)c2c1)c1cc(C)c2oc(=O)n(C)c2c1
62 | 90 to 93 °C | CCOC(=O)c1cc(N(C)S(C)(=O)=O)c(C)nc1C(=O)OCC
63 | 128 to 133 °C | O=C(C(=O)N(CCO)CCO)c1ccc(OCCOc2ccc3ccccc3c2)cc1
64 | 260 to 261 °C | O=C(O)c1[nH]c2ccc(Cl)cc2c1S(=O)(=O)c1nccs1
65 | 54.5 to 56 °C | C=C(C)C(C(=O)OC(C)(C)C)C1(CC(C)C)CCN(CCc2ccccc2)C1=O (stereo not given)
66 | 238 to 241 °C | COc1ccc(C(=O)Nc2ccc(C(=O)N3CCOCC3)cc2)cc1C12CC3CC(CC(C3)C1)C2
67 | 187 to 188 °C | COc1ccc(CC(=O)NC(NC(=NC#N)Nc2cc(Cl)ccc2F)C(C)(C)C)cc1OC (stereo not given)
68 | 254 to 258 °C | O=C(O)c1cccc(CN2C(=O)C3(COc4cc5c(cc43)OCCO5)c3ccccc32)c1 (stereo not given)
69 | 141 to 143 °C | O=S1(=O)NCN(C2CC2)c2c1ccc(F)c2Cl
70 | 93 to 94 °C | COc1ccc(-c2noc3ccsc23)cc1
71 | 124 to 125 °C | CCOC(=O)C1CN(C2CC2)c2nc(Sc3ccc(C)cc3)c(F)cc2C1=O (stereo not given)
72 | 180 °C | CCOc1ccc(/C=C(\C)C(=O)O)cc1
73 | 103 to 105 °C | O=C(CCCCCCS(=O)c1ccc(Cl)cc1)NO (stereo not given)
74 | 73 to 74 °C | CC(C)Oc1ccc(C=O)c(Oc2ccc(Cl)cc2Cl)n1
75 | 308 to 310 °C | COc1cccc2c1[nH]c(=O)n1c(=O)[nH]nc21

Row | melting point | Compound
76 | 85 °C | O=C(c1ccc(-n2ccc(CO)n2)cc1Cl)N1Cc2cccn2Cc2ccccc21
77 | 165 to 166 °C | CCCC(CCC)C(=O)O[C@H]1C[C@H](O)C=C2C=C[C@H](C)[C@H](CC[C@@H]3C[C@@H](O)CC(=O)O3)[C@H]21
78 | 188 °C | Nc1ncnc2c1c(-c1ccc(Oc3ccccc3)cc1)cn2S(=O)(=O)C1CCCC1
79 | 206 to 209 °C | N#Cc1cc(N)c(Cl)cc1C#N
80 | 132 to 135 °C | CCCc1c(OCc2cccc(COc3ccccc3CCC(=O)O)c2)ccc2c1OCCC2=O
81 | 99 to 100 °C | COCCNc1cc(-c2c(-c3cccc(C)c3)nc3cccnn23)ccn1
82 | 72 to 75 °C | COC1=C(OC)C(=O)C2=C(CC(CCCCOc3ccc(CO)cc3)C2)C1=O
83 | 116 to 118 °C | CCOC(=O)CC(=O)NNc1ncc(-c2ccccc2)nc1CC(C)C
84 | 158 to 161 °C | C/C(=C(\C#N)C(N)=S)N1CCCCCC1
85 | 163 °C | CCOC(=O)c1c(NCC(=O)c2ccccc2Cc2ccccc2)c2c(Cl)cc(Cl)cc2n1C(=O)OC(C)(C)C
86 | 206 to 207 °C | CSc1sc(C(N)=O)c2c1-c1[nH]c(-c3ccccc3)nc1CC2
87 | 54 to 57 °C | CC(=O)CCCc1ccc(S(N)(=O)=O)s1
88 | 112 to 114 °C | Cc1cc(Cl)c(C(=O)c2ccc(Cl)cc2)c(Cl)c1
89 | 297 to 300 °C | O=C1Nc2cc(F)ccc2C1c1ncnc2nn(C3CCCCC3)cc12 (stereo not given)
90 | 189 to 192 °C | NC1C(=O)N2C1SC1(CCOCC1)C2C(=O)O (stereo not given)
91 | 220 to 222 °C | O=C1CCC(N2Cc3c(OCc4ccc(CN5CCN(S(=O)(=O)c6ccccc6)CC5)cc4)cccc3C2=O)C(=O)N1 (stereo not given)
92 | 183 to 184 °C | CS(=O)(=O)c1ccc(-n2nc(C(F)(F)F)cc2-c2ccc(-n3ccnc3)cc2)cc1
93 | 170 to 172 °C | O=C(O)COc1ccc(SCc2ccc(OCc3ccc(Cl)cc3)cc2)c2c1CCC2
94 | 203 °C | CC(=O)OC1CSC(Oc2cc(C)c(Cl)cc2-c2ccno2)C(OC(C)=O)C1OC(C)=O (stereo not given)
95 | 158 to 160 °C | CCC(CC)n1cc(Br)nc(N2CCc3cc(Cl)cc(Cl)c32)c1=O
96 | 163 °C | COC(=O)c1cnc(Cl)cc1NN
97 | 145 to 146 °C | O=C(OCN1C(=O)c2ccccc2S1(=O)=O)c1ccncc1

Row | Compound | melting point
98 | O=[N+]([O-])C(CO)(CO)c1cc(Br)cnc1Cl | 162 to 163 °C
99 | O=C(OCC(Cl)(Cl)Cl)n1ccnc1 | 80 °C
100 | CCCCCC(C)C(C)c1cc(O)c2c(c1)OC(C)(C)C1=C2CN(CC(=O)NC)CC1 (stereo not given) | 131 to 134 °C
